The values that follow come from PubChem BioAssay (NCI).

Among the test systems are KM12 colon; OVCAR-8 ovarian; SF-539 CNS; OVCAR-4 ovarian; SR leukemia; IGROV1 ovarian; UACC-257 melanoma; HCC-2998 colon; UACC-62 melanoma; HS 578T breast.
Holding throughout (experiment): NCI anticancer screen, dose series, 48 h

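Five concentrations, 48 hours, 96-well plates. Here, GI50 denotes the concentration required for 50% inhibition of growth. Definition used: TGI = concentration required for complete inhibition of growth.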 Some results are limits rather than exact numbers.

As for `COc1ccc2c(c1)[n+]([O-])c(-c1ccccc1Cl)c(N)[n+]2[O-]`, the TGI in the assay with KM12 colon, in the assay with OVCAR-8 ovarian, with SF-539 CNS, with OVCAR-4 ovarian, in the assay with SR leukemia and in the assay with IGROV1 ovarian was more than 100 µM throughout. For the same molecule, the TGI in the assay with UACC-257 melanoma is more than 100 µM.
On to `COc1cc(O)c(C(=O)/C=C/c2ccc(OC)c(OCc3ccccc3)c2)c(OC)c1`, for which the TGI with KM12 colon, in the assay with OVCAR-8 ovarian, with SF-539 CNS, with HCC-2998 colon, with OVCAR-4 ovarian and in the assay with SR leukemia was more than 100 µM in each case. Also, the values for the TGI in the assay with UACC-62 melanoma, in the assay on IGROV1 ovarian and with UACC-257 melanoma were 7.33 µM, more than 100 µM and more than 100 µM, respectively.
For the molecule `O=C(CCc1ccccc1)CC1OC(=O)C(Cl)=C1Cl` (stereo unspecified), the TGI in the assay on KM12 colon is 33.8 µM; with OVCAR-8 ovarian, 41 µM; in the assay on SF-539 CNS, 76.7 µM; in the assay on HCC-2998 colon, 32.6 µM; with OVCAR-4 ovarian it was more than 100 µM; in the assay on SR leukemia it was more than 100 µM. Further, the TGI in the assay with UACC-62 melanoma was found to be 31.7 µM; with IGROV1 ovarian, 40.8 µM; in the assay with UACC-257 melanoma, 41.1 µM.
For the molecule `CCCCCCCCN=C(NCCCCCCCC)SCc1cccc2ccccc12`, the GI50 in the assay with KM12 colon is 1.68 µM; in the assay with OVCAR-8 ovarian it was 1.64 µM; in the assay with HCC-2998 colon, 1.62 µM; with OVCAR-4 ovarian, 1.32 µM; with HS 578T breast, 1.61 µM; in the assay with SR leukemia it was 0.427 µM. For the same molecule, the GI50 was 1.72 µM in the assay on UACC-62 melanoma and 1.75 µM in the assay with UACC-257 melanoma. The TGI is 3.19 µM with KM12 colon; 3.11 µM in the assay with OVCAR-8 ovarian; 3.05 µM in the assay on HCC-2998 colon; 2.64 µM in the assay on OVCAR-4 ovarian; 3.81 µM in the assay with HS 578T breast; 2.39 µM in the assay on SR leukemia. Also, the TGI with UACC-62 melanoma was determined as 3.22 µM; in the assay with UACC-257 melanoma it was 3.33 µM.
For the molecule `C=C(C)C(=O)Nc1ccc(-c2c(-c3ccc(Oc4nccc(C)n4)c(F)c3)c3c(N)ncnc3n2C)cc1`, the GI50 was 3.87 µM with KM12 colon; 4.49 µM in the assay with OVCAR-8 ovarian; 1.88 µM in the assay with SF-539 CNS; 7.45 µM in the assay on HCC-2998 colon; 2.84 µM in the assay with OVCAR-4 ovarian; 1.09 µM with HS 578T breast. The GI50 in the assay on SR leukemia is 2.36 µM; with IGROV1 ovarian, 3.1 µM; with UACC-257 melanoma, 9.27 µM. For the same molecule, the TGI was 17 µM in the assay with KM12 colon; 19.2 µM in the assay on OVCAR-8 ovarian; 8.89 µM in the assay on SF-539 CNS; 21 µM with HCC-2998 colon; 33.8 µM in the assay on OVCAR-4 ovarian; 4.1 µM with HS 578T breast. The TGI amounted to 9.64 µM in the assay on SR leukemia, 17.4 µM in the assay with IGROV1 ovarian and 23.6 µM in the assay on UACC-257 melanoma.
Turning to `Cc1ccc(S(=O)(=O)NNS(C)(=O)=O)cc1`, the TGI in the assay with KM12 colon, with OVCAR-8 ovarian, in the assay with SF-539 CNS, in the assay with HCC-2998 colon, in the assay on OVCAR-4 ovarian and in the assay on SR leukemia was more than 100 µM in each case. Also, the TGI with UACC-62 melanoma, in the assay with IGROV1 ovarian and in the assay on UACC-257 melanoma was more than 100 µM throughout.
Take `N#CC(/C(CCCC(=O)Nc1cccc([N+](=O)[O-])c1)=N\NC(=O)c1c(O)ccc2ccccc12)c1nc2ccccc2s1` (stereo unspecified): the TGI in the assay on KM12 colon was more than 100 µM; in the assay with OVCAR-8 ovarian, more than 100 µM; in the assay on SF-539 CNS, 66.3 µM; in the assay with OVCAR-4 ovarian it was more than 100 µM; in the assay with SR leukemia, more than 100 µM; with IGROV1 ovarian it was more than 100 µM. In the assay with UACC-257 melanoma, this molecule showed a TGI of more than 100 µM.
On to `CC/C=C\C[C@H]1C/C=C2/C(=O)C(Cl)=C[C@@H]2C/C=C\CCCC(=O)O1`, for which the GI50 in the assay on KM12 colon is 0.403 µM; with OVCAR-8 ovarian, 0.143 µM; with SF-539 CNS it was 0.523 µM; with HCC-2998 colon it was 0.437 µM; in the assay on OVCAR-4 ovarian, 0.952 µM; in the assay with HS 578T breast, 0.698 µM. The GI50 in the assay on SR leukemia is 0.0753 µM; in the assay on UACC-62 melanoma it was 0.28 µM; with IGROV1 ovarian it was 0.605 µM. Further, the TGI in the assay with KM12 colon came to 1.07 µM; in the assay on OVCAR-8 ovarian, 2.68 µM; in the assay with SF-539 CNS it was 1.41 µM; with HCC-2998 colon, 0.826 µM; in the assay on OVCAR-4 ovarian, 4.9 µM; with HS 578T breast it was 25 µM. Moreover, the values for the TGI in the assay on SR leukemia, with UACC-62 melanoma and with IGROV1 ovarian were 4.93 µM, 1.2 µM and 1.94 µM, respectively.
With `N=C(CC(=O)Nc1ccccn1)c1ccccc1`, the TGI with KM12 colon, in the assay with OVCAR-8 ovarian, with SF-539 CNS, in the assay with OVCAR-4 ovarian, in the assay with HS 578T breast and with SR leukemia was more than 100 µM in each case. The TGI with UACC-62 melanoma, with IGROV1 ovarian and with UACC-257 melanoma was more than 100 µM each time.
Turning to `COc1ccc(C(=O)C(C(=O)C(=O)NCCCNC(=O)C(=O)C(C(=O)c2ccc(OC)cc2)c2ccc(OC)cc2)c2ccc(OC)cc2)cc1` (stereo unspecified), the TGI with KM12 colon, with OVCAR-8 ovarian, in the assay with SF-539 CNS, in the assay with HCC-2998 colon, in the assay on OVCAR-4 ovarian and in the assay with SR leukemia was more than 100 µM each time. In addition, the TGI with UACC-62 melanoma, with IGROV1 ovarian and in the assay on UACC-257 melanoma was more than 100 µM throughout.
`Cc1c(-c2ccccn2)ccc2ccccc12`: the TGI in the assay with KM12 colon, in the assay with OVCAR-8 ovarian, in the assay with SF-539 CNS, with HCC-2998 colon, with HS 578T breast and in the assay with SR leukemia was more than 100 µM throughout. Also, the TGI in the assay with UACC-62 melanoma and in the assay on UACC-257 melanoma was more than 100 µM throughout.
Turning to `COC1/C(=C\C(C)=O)c2ccccc2N1C(C)=O` (stereo unspecified), the TGI in the assay with KM12 colon, in the assay with OVCAR-8 ovarian, with SF-539 CNS, in the assay on HCC-2998 colon, in the assay on OVCAR-4 ovarian and in the assay on SR leukemia was more than 100 µM in each case. The TGI in the assay on UACC-62 melanoma, in the assay with IGROV1 ovarian and in the assay on UACC-257 melanoma was more than 100 µM throughout.
In the case of `Cc1cc(Br)ccc1N=Nc1c(C)nn(-c2ccccc2)c1-c1ccccc1`, the TGI with KM12 colon, in the assay with OVCAR-8 ovarian, with SF-539 CNS, with OVCAR-4 ovarian, in the assay on SR leukemia and in the assay with UACC-62 melanoma was more than 100 µM each time. The TGI with IGROV1 ovarian and in the assay on UACC-257 melanoma was more than 100 µM in each case.
